Measurements published in PubChem BioAssay (NCI).
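Cultured in 96-well plates, cells were exposed to test compound for 48 hours across five concentrations. The concentration for full growth arrest is given as TGI.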

Assays:
Assay in all cases: growth of human tumour cells (NCI), 48 h
SN12C renal = tested on: SN12C renal
TK-10 renal = tested on: TK-10 renal
HS 578T breast = tested on: HS 578T breast
UACC-62 melanoma = tested on: UACC-62 melanoma
M14 melanoma = tested on: M14 melanoma
OVCAR-4 ovarian = tested on: OVCAR-4 ovarian
LOX IMVI melanoma = tested on: LOX IMVI melanoma
OVCAR-3 ovarian = tested on: OVCAR-3 ovarian
EKVX NSCLC = tested on: EKVX NSCLC
RXF 393 renal = tested on: RXF 393 renal
MALME-3M melanoma = tested on: MALME-3M melanoma
A549 NSCLC = tested on: A549 NSCLC
NCI-H522 lung = tested on: NCI-H522 lung
SK-OV-3 ovarian = tested on: SK-OV-3 ovarian
HOP-92 NSCLC = tested on: HOP-92 NSCLC
KM12 colon = tested on: KM12 colon
HCT-116 colon = tested on: HCT-116 colon
SF-539 CNS = tested on: SF-539 CNS
SF-295 CNS = tested on: SF-295 CNS
SR leukemia = tested on: SR leukemia
SF-268 CNS = tested on: SF-268 CNS
OVCAR-8 ovarian = tested on: OVCAR-8 ovarian
NCI-H460 lung = tested on: NCI-H460 lung
U251 CNS = tested on: U251 CNS
MDA-MB-435 = tested on: MDA-MB-435
HOP-62 NSCLC = tested on: HOP-62 NSCLC
HL-60(TB) leukemia = tested on: HL-60(TB) leukemia
NCI-H226 lung = tested on: NCI-H226 lung
SK-MEL-2 melanoma = tested on: SK-MEL-2 melanoma
HCT-15 colon = tested on: HCT-15 colon
MCF7 breast = tested on: MCF7 breast
BT-549 breast = tested on: BT-549 breast
SK-MEL-28 melanoma = tested on: SK-MEL-28 melanoma
COLO 205 colon = tested on: COLO 205 colon
SNB-19 CNS = tested on: SNB-19 CNS
CAKI-1 renal = tested on: CAKI-1 renal
SK-MEL-5 melanoma = tested on: SK-MEL-5 melanoma
MDA-N = tested on: MDA-N
K-562 leukemia = tested on: K-562 leukemia
HT29 colon = tested on: HT29 colon
SW-620 colon = tested on: SW-620 colon
MDA-MB-231 breast = tested on: MDA-MB-231 breast
DU-145 prostate = tested on: DU-145 prostate
HCC-2998 colon = tested on: HCC-2998 colon
T-47D breast = tested on: T-47D breast
NCI-H23 lung = tested on: NCI-H23 lung
NCI/ADR-RES ovarian = tested on: NCI/ADR-RES ovarian
RPMI-8226 leukemia = tested on: RPMI-8226 leukemia
PC-3 prostate = tested on: PC-3 prostate
UACC-257 melanoma = tested on: UACC-257 melanoma
MOLT-4 leukemia = tested on: MOLT-4 leukemia
OVCAR-5 ovarian = tested on: OVCAR-5 ovarian
CCRF-CEM leukemia = tested on: CCRF-CEM leukemia
786-0 renal = tested on: 786-0 renal
UO-31 renal = tested on: UO-31 renal
ACHN renal = tested on: ACHN renal
IGROV1 ovarian = tested on: IGROV1 ovarian
A498 renal = tested on: A498 renal
SNB-75 CNS = tested on: SNB-75 CNS

Measured: TGI

COc1ccc(C(=C(I)c2ccccc2)c2ccc(OC)cc2)cc1
not listed: A498 renal | SNB-75 CNS
> 100 µM: all other assays above

COC(=O)c1ccccc1C#CCCCOS(C)(=O)=O
not listed: NCI-H522 lung | HOP-92 NSCLC | SNB-75 CNS
> 10 µM: all other assays above

OCC(Cn1cncn1)(c1ccc(F)cc1F)n1cncn1 (centres undefined)
not listed: OVCAR-4 ovarian | EKVX NSCLC | HOP-92 NSCLC
> 100 µM: all other assays above
